Laboratory results reported in publication PMC3872965 (Journal of immunology (Baltimore, Md. : 1950), 2013).

Tested on: B*0702-transgenic mice
Conditions: mouse, in vivo, sc

RPRWLDARV
Average T cell response: 659 SFC/10^6 CD8^+
